The record followed here is patent US5679678A, “Thienithiazine derivatives” (Chemisch Pharmazeutische Forschungsgesellschaft m.b.H., priority 1991, dated 1997).

Some results are limits rather than exact numbers.

In one experiment the test system is cyclooxygenase. The experiment is described as follows: Formation of prostaglandin D2 by neutrophils (measure of cyclooxygenase activity), A23187 stimulated, RIA. Format: cell-based, Sprague-Dawley rats. As to conditions: rat peritoneal neutrophils (lambda-carageenan), 5 min preincubation at 37° C., A23187 2 μmol/l, read-out: IC50 PGD2. Here is the method: (§1) The formation of prostaglandin D2 by neutrophils was used as a measure of the cyclooxygenase activity, and the formation of leucotrien B4 as a measure of the 5-lipoxygenase activity.
(§2) Male Sprague-Dawley rats (250-300 g) received 1 mg of lambda-carageenan (dissolved in 0.5 ml of distilled water) injected intraperitoneally.
(§3) After 16 hours, the rats were sacrificed by exposure to diethyl ether. 15 ml of Hanks balanced salt solution (HBSS) were injected i.p., the neutrophils were harvested by aspiration (10 ml) and were centrifuged (5 min, 100 g, 4° C.), the supernatant solution was decanted, and the cells were resuspended in HBSS at 4° C. to a concentration of 5×10^6 cells/ml.
(§4) 400 μl of cell suspension (2×10^6 cells), […] of compound dissolved in DMSO and 49.5 μl of HBSS were incubated at 37° C. for 5 min. Then 50 μl of A23187 (2 μmol/1 final concentration) were added and subsequently the mixture was again incubated at 37° C. for 5 min.
(§5) The reaction was stopped by centrifugation at 10,000 g for 3 s, and the supernatant liquid was transferred into precooled plastic tubes and left in an ice bath for a maximum of 1 h before starting the radioimmunoassay measurement.
(§6) PGD2 and LTB4 were measured after dilution with HBSS using commercial RIA kits.
(§7) The comparison substance was 6-chloro-2-methyl-N-(2-pyridyl)-2H-thieno[2,3-e]-1,2-thiazine-3-carboxamide 1,1-dioxide ("LORNOXICAM", Compound A).

The next experiment concerns the target T1, 5-lipoxygenase (Rattus norvegicus, UniProt P12527).
T1 construct: endogenous in cells; host or cells: peritoneal neutrophils of male Sprague-Dawley rats, elicited by i.p. carrageenan (16 h)
T1 sequence (P12527 1-673): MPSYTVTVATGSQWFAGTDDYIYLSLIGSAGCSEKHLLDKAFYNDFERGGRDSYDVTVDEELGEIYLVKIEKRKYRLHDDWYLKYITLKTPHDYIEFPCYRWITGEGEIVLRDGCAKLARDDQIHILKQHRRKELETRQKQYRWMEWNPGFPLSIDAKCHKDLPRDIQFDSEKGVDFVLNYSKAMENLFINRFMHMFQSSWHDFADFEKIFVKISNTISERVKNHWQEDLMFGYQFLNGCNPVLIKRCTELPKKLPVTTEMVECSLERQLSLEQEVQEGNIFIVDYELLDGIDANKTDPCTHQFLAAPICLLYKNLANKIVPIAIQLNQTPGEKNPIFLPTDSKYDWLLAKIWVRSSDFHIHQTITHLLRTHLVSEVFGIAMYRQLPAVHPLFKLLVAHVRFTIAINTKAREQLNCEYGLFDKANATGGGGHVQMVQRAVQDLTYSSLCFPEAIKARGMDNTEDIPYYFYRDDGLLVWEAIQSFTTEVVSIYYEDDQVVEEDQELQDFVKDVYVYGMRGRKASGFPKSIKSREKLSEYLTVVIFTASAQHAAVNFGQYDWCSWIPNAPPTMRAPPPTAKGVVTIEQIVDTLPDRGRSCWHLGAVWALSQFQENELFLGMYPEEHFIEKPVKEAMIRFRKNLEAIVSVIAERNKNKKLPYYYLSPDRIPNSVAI
The experiment is described as follows: Formation of leucotrien B4 by neutrophils (measure of 5-lipoxygenase activity), A23187 stimulated, RIA. As to conditions: rat peritoneal neutrophils (lambda-carageenan), 5 min preincubation at 37° C., A23187 2 μmol/l, read-out: IC50 LTB4. Format: cell-based, Sprague-Dawley rats. The protocol:
as §1, §2, §3, §4, §5, §6, §7

For the compound `CN1C(C(=O)Nc2ccccn2)=C(O)c2sc(Cl)cc2S1(=O)=O` [Compound A, reference compound], the IC50 in the experiment on cyclooxygenase was 20 nM; at 5-lipoxygenase it was above 10000 nM.
Consider `CN1C(C(=O)Nc2nc(-c3cc4ccccc4o3)cs2)=C(O)c2sc(-c3ccco3)cc2S1(=O)=O` [Compound 9, N-[4-(2-Benzo[b]furanyl)-2-thiazolyl]-6-(2-furanyl)-4-hydroxy-2-methyl-2H-thieno[2,3-e]-1,2-thiazine-3-carboxamide 1,1-dioxide], for which the half-inhibitory concentration (IC50) in the experiment on cyclooxygenase amounted to 39 nM; at 5-lipoxygenase it was 1600 nM.
Consider `CN1C(C(=O)Nc2nc(-c3ccccc3)cs2)=C(O)c2sc(Cl)cc2S1(=O)=O` [Compound 2, 6-Chloro-4-hydroxy-2-methyl-N-(4phenyl-2-thiazolyl)-2H-thieno[2,3-e]-1,2-thiazine-3-carboxamide 1,1-dioxide], for which the figures for the IC50 in the experiment on cyclooxygenase and at 5-lipoxygenase were 27 nM and above 10000 nM, respectively.
Taken in the same sequence, the figures for `CN1C(C(=O)Nc2nc(-c3cc4ccccc4o3)co2)=C(O)c2sc(-c3ccco3)cc2S1(=O)=O` [Compound 11] were 200 nM and 2100 nM.
Regarding `CN1C(C(=O)Nc2ccccn2)=C(O)c2sc(-c3cccs3)cc2S1(=O)=O` [Compound 15, 4-Hydroxy-2-methyl-N-(2-pyridinyl)-6-(2-thienyl)-2H-thieno[2,3-e]-1,2-thiazine-3-carboxamide 1,1-dioxide], the IC50 in the experiment on cyclooxygenase is 3.5 nM; at 5-lipoxygenase it was above 10000 nM.
Regarding `CN1C(C(=O)Nc2ccccn2)=C(O)c2sc(-c3ccccc3)cc2S1(=O)=O` [Compound 14, 4-Hydroxy-2-methyl-6-phenyl-N-(2-pyridinyl)-2H-thieno-[2,3-e]-1,2-thiazine-3-carboxamide 1,1-dioxide], the values for the IC50 with cyclooxygenase and on 5-lipoxygenase were 38 nM and above 10000 nM, respectively.
With `CN1C(C(=O)Nc2ccccn2)=C(O)c2sc(-c3ccco3)cc2S1(=O)=O` [Compound 16, 6-(2-Furyl)-4-hydroxy-2-methyl-N-(2-pyridinyl)-2H-thieno[2,3-e]-1,2-thiazine-3-carboxamide 1,1-dioxide], the IC50 in the experiment on cyclooxygenase was 9.6 nM; at 5-lipoxygenase, above 10000 nM.
Taken in the same sequence, the figures for `CN1C(C(=O)Nc2nc(-c3cc4ccccc4o3)cs2)=C(O)c2sc(Cl)cc2S1(=O)=O` [Compound 8, N-[4-(2-Benzo[b]furanyl)-2-thiazolyl]-6-chloro-4-hydroxy-2-methyl-2H-thieno[2,3-e]-1,2-thiazine-3-carboxamide 1,1-dioxide] were 100 nM and 2200 nM.
Consider `CN1C(C(=O)Nc2nc(-c3ccc(-c4ccc(F)cc4)o3)cs2)=C(O)c2sc(Cl)cc2S1(=O)=O` [Compound 6, 6-Chloro-N-{4-[5-(4-fluorophenyl)-2-furanyl]-2-thiazolyl}-4-hydroxy-2-methyl-2H-thieno[2,3-e]-1,2-thiazine-3-carboxamide 1,1-dioxide], for which the half-inhibitory concentration (IC50) in the experiment on cyclooxygenase amounted to 3600 nM; at 5-lipoxygenase, 580 nM.
As to `CN1C(C(=O)Nc2nc(-c3ccc(-c4ccc(F)cc4)o3)cs2)=C(O)c2sc(-c3ccco3)cc2S1(=O)=O` [Compound 7, N-{4-[5-(4-Fluorophenyl)-2-furanyl]-2-thiazolyl}-6-(2-furanyl)-4-hydroxy-2-methyl-2H-thieno[2,3-e]-1,2-thiazine-3-carboxmide 1,1-dioxide], the IC50 in the experiment on cyclooxygenase turned out to be 1600 nM; on 5-lipoxygenase it was 730 nM.
Regarding `CN1C(C(=O)Nc2nc(-c3ccccc3)cs2)=C(O)c2sc(-c3ccco3)cc2S1(=O)=O` [Compound 3, 6-(2-Furyl)-4-hydroxy-2-methyl-N-(4-phenyl-2thiazolyl)-2H-thieno[2,3-e]-1,2-thiazine-3-carboxamide 1,1-dioxide], the IC50 amounted to 17 nM in the experiment with cyclooxygenase and 5200 nM at 5-lipoxygenase.
Consider `CN1C(C(=O)Nc2cccc(-c3cc4ccccc4o3)n2)=C(O)c2sc(-c3ccccc3)cc2S1(=O)=O` [Compound 17, N-[6-(2-Benzo[b]furyl)-2-pyridinyl]-4-hydroxy-2-methyl-6-phenyl-2H-thieno[2,3-e]-1,2-thiazine-3-carboxamide 1,1-dioxide], for which the IC50 in the experiment on cyclooxygenase was found to be 190 nM; at 5-lipoxygenase, 1300 nM.
On the same counts, the results for `CN1C(C(=O)Nc2nccs2)=C(O)c2sc(Cl)cc2S1(=O)=O` [Compound 1, 6-Chloro-4-hydroxy-2-methyl-N-(2-thiazolyl)-2H-thieno[2,3-e]-1,2-thiazine-3-carboxamide 1,1-dioxide] are 17 nM and above 10000 nM.
On the same counts, the results for `CN1C(C(=O)Nc2nc(-c3ccc(Oc4ccc(F)cc4)o3)cs2)=C(O)c2sc(Cl)cc2S1(=O)=O` [Compound 4, 6-Chloro-N-{4-[5-(4-fluorophenoxy)-2-furanyl]-2-thiazolyl}-4-hydroxy-2-methyl-2H-thieno[2,3-e]-1,2-thiazine-3-carboxamide 1,1-dioxide] are 3400 nM and 470 nM.
`CN1C(C(=O)Nc2nc(-c3cc4ccccc4s3)co2)=C(O)c2sc(Cl)cc2S1(=O)=O` [Compound 12, N-[4-(2-Benzo[b]thienyl)-2-oxazolyl]-6-chloro-4-hydroxy-2-methyl-2H-thieno[2,3e]-thiazine-3-carboxamide 1,1-dioxide]: the figures for the IC50 in the experiment with cyclooxygenase and at 5-lipoxygenase were 190 nM and 2700 nM, respectively.
Turning to `CN1C(C(=O)Nc2nc(-c3ccc(Oc4ccc(F)cc4)o3)cs2)=C(O)c2sc(-c3ccco3)cc2S1(=O)=O` [Compound 5, N-{4[5-(4-Fluorophenoxy)-2-furanyl]-2-thiazolyl}-6-(2-furanyl)-4-hydroxy-2-methyl-2H-thieno[2,3-]-1,2-thiazine-3-carboxamide 1,1-dioxide], the IC50 in the experiment with cyclooxygenase is 270 nM; on 5-lipoxygenase, 660 nM.
`CN1C(C(=O)Nc2cccc(-c3cc4ccccc4o3)n2)=C(O)c2sc(-c3ccco3)cc2S1(=O)=O` [Compound 19, N-[6-(2-Benzo[b]furyl)-2-pyridinyl]-6-(2-furyl)-4-hydroxy-2-methyl-2H-thieno[2,3e]-1,2-thiazine-3-carboxamide 1,1-dioxide]: the IC50 in the experiment with cyclooxygenase was determined as 39 nM; at 5-lipoxygenase, 1400 nM.
Taken in the same sequence, the figures for `CN1C(C(=O)Nc2cccc(-c3cc4ccccc4o3)n2)=C(O)c2sc(-c3cccs3)cc2S1(=O)=O` [Compound 18, N-[6-(2-Benzo[b]furyl)-2-pyridinyl]-4-hydroxy-2-methyl-6-(2-thienyl)-2H-thieno[2,3-e]-1,2-thiazine-3-carboxamide 1,1-dioxide] were 68 nM and 1300 nM.

In general, IC50 refers to the concentration that gives 50% inhibition.
